The values below come from patent US20020164663A1, “Methods and compositions for detection, diagnosis and prediction of antiestrogen-resistant breast cancer” (BOARD OF REGENTS, THE UNIVERSITY OF TEXAS SYSTEM, priority 1998, published 2002).

One test relates to bFGFR. The test is described as follows: cDNA expression array of MCF-7 tumors (estrogen-stimulated, tamoxifen-sensitive, tamoxifen-resistant). The settings on record: breast cancers treated with tamoxifen in comparison with estrogen-stimulated breast cancer; FIG. 6. It is filed as in vivo, human. As to the method:
(§1) MCF-7 tumors were inoculated into the mammary fat pads of athymic nude mice supplemented with an estrogen pellet as described previously (Osborne et al., 1985) until tumors arose. The estrogen pellets were removed and the animals were treated with tamoxifen. […] Invariably, however, after initial growth suppression, the tumors became resistant and growth resumed. Animals were sacrificed at various times to obtain cells from estrogen-stimulated (ES) tumors prior to tamoxifen treatment, from tamoxifen-sensitive (TS) tumors during tamoxifen treatment but prior to acquired resistance, and from tamoxifen-resistant (TR) tumors after tumor growth had resumed.
(§2) RNA was prepared from these tumors (n=5 tumors per group) using RNeasy kits (Qiagen Inc., Valencia, Calif.), and mRNA was isolated on Dynabeads (Dyne, Oslo, Norway) according to manufacturer's instructions. […]
(§3) The controls, which were more difficult to quantitate reliably, were not included in the statistical analyses. […]
(§4) Principal Components Analysis (PCA) of mean-centered log-transformed data, based on the variance-covariance matrix (Tatsuoka, 1971), was then used to standardize across the three hybridizations and to extract three new axes (components P1, P2, and P3), expressed as linear combinations of the original axes (ES, TS, and TR). […]

In a further test the test system is VEGF. Described as above. It is filed as in vivo, human. To be noted: breast cancers treated with tamoxifen in comparison with estrogen-stimulated breast cancer; FIG. 6. As to the method: as §1, §2, §3, §4
The subject of a further test is MCF-7 tumors. The test is described as follows: MCF-7 tumors in mammary fat pads of athymic nude mice, tamoxifen treatment after removal of estrogen pellet. It is filed as in vivo. To be noted: athymic nude mice with MCF-7 tumors; estrogen pellets removed, treated with tamoxifen; later tumors became resistant and growth resumed. As to the method: as §1

Regarding `CC/C(=C(\c1ccccc1)c1ccc(OCCN(C)C)cc1)c1ccccc1` [tamoxifen], the bFGFR expression entry in the test on bFGFR is given as “decreased expression”. For the same compound, the VEGF expression result with VEGF is on record as “decreased expression”. In addition, the Tumor volumes result in the test with MCF-7 tumors is “declined and remained stable for several months”.
